Holding throughout (test): DTP human tumour cell line panel, 48 h
Experiment [1] has as its system SK-OV-3 ovarian.
Experiment [2] deals with PC-3 prostate.
The test system of experiment [3] is A549 NSCLC.
Experiment [4] has as its system OVCAR-4 ovarian.
Experiment [5] deals with MDA-MB-435.
The test system of experiment [6] is MOLT-4 leukemia.
Experiment [7] relates to NCI-H460 lung.
Experiment [8] concerns 786-0 renal.
The subject of experiment [9] is SK-MEL-28 melanoma.
The subject of experiment [10] is SF-539 CNS.

A word on the GI50: it is the concentration that inhibits growth by half. In general, TGI refers to the concentration giving total growth inhibition.

Each structure is given as a SMILES string. Values joined by “and” are separate entries in the source; they are usually repeats but may differ in a detail not shown here. Equal entries are not always repeated.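 Following 48 hours of exposure in 96-well plates, responses at five concentrations were used to interpolate endpoints linearly. GI50: concentration for 50% inhibition of growth. TGI marks complete inhibition of growth.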

Take `CN(C)c1ccc(/C=C(\C#N)c2ccccc2)cc1`: the GI50 in [1] was 0.421 µM and 0.622 µM and 0.641 µM; in experiment [2], 0.272 µM and 1.92 µM and 0.956 µM; in experiment [3], 0.73 µM and 0.796 µM and 0.691 µM; in [4] it was 3.18 µM and 2.42 µM and 1.75 µM; in [5], 0.0424 µM and 0.192 µM and 0.13 µM; in [6], 0.372 µM and 0.439 µM and 0.545 µM. In addition, the GI50 was 0.356 µM and 0.415 µM and 0.431 µM in experiment [7]; 0.56 µM and 0.763 µM and 0.437 µM in experiment [8]; 0.324 µM and 0.481 µM in [10]. Further, the TGI in experiment [1] is greater than 100 µM; in [2], greater than 100 µM; in experiment [3], greater than 100 µM; in [4], greater than 100 µM; in experiment [6] it was greater than 100 µM; in experiment [8] it was > 100 µM and 58.6 µM and 30.2 µM. Also, the TGI is greater than 100 µM in [9]; 1.34 µM and 4.48 µM in [10].

With `CCCCCCCCCCCCNC(=O)N[C@H](C(=O)N[C@H]1/C=C/CCNC(=O)/C=C/[C@H](C)NC1=O)C(C)C`, the GI50 was 0.339 µM in experiment [1]; 0.0154 µM in [2]; 0.262 µM in experiment [3]; 0.104 µM in experiment [4]; 0.0316 µM in experiment [5]; 0.0448 µM in experiment [6]. In addition, the GI50 in experiment [7] is 0.0416 µM; in experiment [8], 0.276 µM; in experiment [9], 0.208 µM; in [10] it was 0.0805 µM. The TGI worked out at 1.99 µM in experiment [1]; 0.0665 µM in experiment [2]; 9.07 µM in experiment [3]; 2.12 µM in experiment [4]; 0.286 µM in [5]; 1.13 µM in experiment [6]. The TGI was 0.288 µM in [7], 5.39 µM in experiment [8], 0.708 µM in experiment [9] and 0.263 µM in experiment [10].

For the compound `CN1C(=O)/C(=C2\S/C(=N\c3nnc(-c4ccccc4)o3)NC2=O)c2ccccc21`, the GI50 is greater than 100 µM in experiment [1]; greater than 100 µM in [2]; 43.9 µM in [3]; greater than 100 µM in experiment [4]; greater than 100 µM in experiment [5]; greater than 100 µM in [6]. The GI50 was 65.6 µM in experiment [7], greater than 100 µM in [8], greater than 100 µM in [9] and greater than 100 µM in [10]. Besides, the TGI in [1], in experiment [2], in [3], in [4], in experiment [5] and in experiment [6] was greater than 100 µM in each case. Besides, the TGI in experiment [7], in [8], in [9] and in [10] was greater than 100 µM in each case.

Take `O=c1c2ccccc2nc2n1CCc1c-2[nH]c2cc3c(cc12)OCO3`: the TGI in experiment [1] was greater than 25 µM; in experiment [2], greater than 25 µM; in experiment [3], greater than 25 µM; in [4], 6.35 µM; in experiment [5] it was greater than 25 µM; in experiment [6] it was greater than 25 µM. For the same compound, the TGI in [7] was greater than 25 µM; in experiment [8] it was 7.69 µM; in experiment [9], greater than 25 µM; in experiment [10], greater than 25 µM. Besides, the GI50 was greater than 25 µM in experiment [3], 1.5 µM in experiment [4], 1.55 µM in experiment [7] and 1.08 µM in experiment [8].

Take `Cc1ccc(S(=O)(=O)OCC(=O)Nc2ccc(C(=O)O)c(O)c2)cc1`: the GI50 in [1] is 49.5 µM; in experiment [2], 30.4 µM; in [3], 199 µM; in experiment [4] it was 26.8 µM; in experiment [5], 39.9 µM; in experiment [6] it was 16.5 µM. Also, the GI50 in [7] was 124 µM; in experiment [8] it was 30.5 µM; in [9] it was 31.8 µM; in experiment [10] it was 24.7 µM. In addition, the TGI in experiment [1] is 188 µM; in [2] it was 131 µM; in [3], 503 µM; in [4] it was 143 µM; in [5], 169 µM; in experiment [6] it was 87.9 µM. For the same compound, the TGI in experiment [7] is 292 µM; in experiment [8], 96.7 µM; in [9] it was 94.5 µM; in experiment [10] it was 72.2 µM.

With `CCNC(=O)Oc1ccc(/C(=C(\C)c2ccc(Cl)cc2)c2ccc(OCCN(CC)CC)cc2)cc1`, the GI50 in experiment [1] is 10.7 µM; in experiment [2] it was 3.89 µM; in [3], 5.63 µM; in [4], 3.65 µM; in experiment [5], 3.44 µM; in [6], 3.07 µM. Also, the GI50 was 2.09 µM in [7], 1.76 µM in experiment [8], 1.74 µM in experiment [9] and 1.78 µM in experiment [10]. Moreover, the TGI in experiment [1] worked out at 22.8 µM; in experiment [2], 14.1 µM; in [3] it was 18.4 µM; in experiment [4], 17.3 µM; in [5], 12.8 µM; in [6] it was 11 µM. Further, the TGI in experiment [7] is 4.16 µM; in experiment [8], 3.42 µM; in experiment [9], 3.52 µM; in experiment [10] it was 3.44 µM.

With `CS(=O)(=O)O[C@H]1C(=O)N(c2cc3c4ccccc4ccc3c3ccccc23)[C@@H]1c1ccccn1`, the GI50 is 0.627 µM in experiment [1]; 0.399 µM in [2]; 0.665 µM in experiment [3]; 1.62 µM in [4]; 0.217 µM in experiment [5]; 2.22 µM in experiment [6]. The GI50 is 2.39 µM in experiment [7], 0.348 µM in [8], 0.783 µM in experiment [9] and 0.316 µM in [10]. Further, the TGI was greater than 100 µM in experiment [1]; greater than 100 µM in experiment [2]; greater than 100 µM in experiment [3]; greater than 100 µM in experiment [4]; 0.597 µM in [5]; greater than 100 µM in [6]. For the same compound, the TGI is greater than 100 µM in [7], 31.7 µM in experiment [8], greater than 100 µM in experiment [9] and 2.96 µM in experiment [10].

Take `O=C(Nc1ccc(Oc2ccc(NC(=O)Nc3ccccc3Cl)cc2)cc1)Nc1ccccc1Cl`: the GI50 in experiment [1] is 9.33 µM; in experiment [2], 2.11 µM; in experiment [3], 2.69 µM; in experiment [4], 2.71 µM; in experiment [5] it was greater than 100 µM; in experiment [6], 12.1 µM. Besides, the GI50 is 2.49 µM in experiment [7], 22.6 µM in experiment [8], 3.54 µM in experiment [9] and 6 µM in experiment [10]. In addition, the TGI was 38.1 µM in [1]; greater than 26.1 µM in experiment [3]; 24.4 µM in [4]; greater than 100 µM in [5]; 32.9 µM in experiment [6]; greater than 100 µM in experiment [7]. The figures for the concentration for total growth inhibition (TGI) in [8], in experiment [9] and in [10] were greater than 69.2 µM, greater than 100 µM and 22.1 µM, respectively.

The values above are taken from PubChem BioAssay (NCI).
